The text below walks through data of patent US7498347B2, “Hydroxycarbonylphenyl substituted 4-(aminomethyl)-piperidine benzamides as 5HT4 antagonists” (Janssen Pharmaceutica, N.V., priority 2004, dated 2009).

The target in data set [1] is T1, h5-HT4b (Homo sapiens, UniProt Q13639).
T1 construct: expressed in transfected cells; host or cells: HEK 293 (clone 9), membrane preparation
In words: 5HT4 antagonism: [3H]GR113808 binding to membranes of h5-HT4b-HEK 293 clone 9 cells. As to conditions: displacement of [3H]GR113808 0.1 nM, h5-HT4b-HEK 293 membranes, 30 min at 25° C.; read-out: pIC50 (5HT4 antagonistic data) (converted). On the procedure:
h5-HT4b-HEK 293 clone 9 cells were cultured in 150 mm Petri dishes and washed twice with cold PBS. The cells were then scraped from the plates and suspended in 50 mM Tris-HCl buffer, pH 7.4 and harvested by centrifugation at 23,500 rpm for 10 minutes. The pellet was resuspended in 5 mM Tris-HCl, pH 7.4 and homogenized with an Ultra Turrax homogenizer. The membranes were collected by centrifugation at 30,000 rpm for 20 min, resuspended in 50 mM Tris-HCl pH 7.4 and stored at −80° C. For the experiment, assay mixtures (0.5 ml) contained 50 μl of the tritiated ligand (5-HT4 antagonist [^3H]GR113808 0.1 nM) and 0.4 ml membrane preparation (15 μg protein/ml). 50 μl of 10% DMSO was added for total binding. 50 μl of 1 μM of (+)-trans-(1-butyl-3-hydroxy-4-piperidinyl)methyl 8-amino-7-chloro-2,3-dihydro-1,4-benzodioxin-5-carboxylate (a proprietary 5HT4 agonist of Janssen Pharmaceutica) was added for determination of non-specific binding.
The [^3H]GR113808 assay buffer was 50 mM HEPES-NaOH, pH 7.4. The mixtures were incubated for 30 min at 25° C. The incubation was terminated by filtration over a Unifilter 96 GF/B presoaked in 0.1% polyethylenimine, followed by six washing steps with 50 mM HEPES-NaOH, pH 7.4.

Data set [2] is described as follows: Metabolic stability in liver microsomes, LC-MS analysis. The data set is classed as in vitro ADME. To be noted: compound 5 μM, microsomes 1 mg/ml, NADPH-generating system, 60 minutes at 37 degrees Celsius. On the procedure: Sub-cellular tissue preparations were made according to Gorrod et al. (Xenobiotica 5: 453-462, 1975) by centrifugal separation after mechanical homogenization of tissue. Liver tissue was rinsed in ice-cold 0.1 M Tris-HCl (pH 7.4) buffer to wash excess blood. Tissue was then blotted dry, weighed and chopped coarsely using surgical scissors. The tissue pieces were homogenized in 3 volumes of ice-cold 0.1 M phosphate buffer (pH 7.4).
Tissue homogenates were centrifuged at 9000×g for 20 minutes at 4° C. The resulting supernatant was stored at −80° C. and is designated ‘S9’.
The S9 fraction can be further centrifuged at 100.000×g for 60 minutes (4° C.). The resulting supernatant was carefully aspirated, aliquoted and designated ‘cytosol’. The pellet was re-suspended in 0.1 M phosphate buffer (pH 7.4) in a final volume of 1 ml per 0.5 g original tissue weight and designated ‘microsomes’.
All sub-cellular fractions were aliquoted, immediately frozen in liquid nitrogen and stored at −80° C. until use.
For the samples to be tested, the incubation mixture contained PBS (0.1M), compound (5 μM), microsomes (1 mg/ml) and a NADPH-generating system (0.8 mM glucose-6-phosphate, 0.8 mM magnesium chloride and 0.8 Units of glucose-6-phosphate dehydrogenase). Control samples contained the same material but the microsomes were replaced by heat inactivated (10 minutes at 95 degrees Celsius) microsomes. Recovery of the compounds in the control samples was always 100%.
The mixtures were preincubated for 5 minutes at 37 degrees Celsius. The reaction was started at time point zero (t=0) by addition of 0.8 mM NADP and the samples were incubated for 60 minutes (t=60). The reaction was terminated by the addition of 2 volumes of DMSO. Then the samples were centrifuged for 10 minutes at 900×g and the supernatants were stored at room temperature for no longer as 24 hours before analysis. All incubations were performed in duplo. Analysis of the supernatants was performed with LC-MS analysis. Elution of the samples was performed on a Xterra MS C18 (50×4.6 mm, 5 μm, Waters, US). An Alliance 2790 (Supplier: Waters, US) HPLC system was used. Elution was with buffer A (25 mM ammoniumacetate (pH 5.2) in H2O/acetonitrile (95/5)), solvent B being acetonitrile and solvent C methanol at a flow rate of 2.4 ml/min. The gradient employed was increasing the organic phase concentration from 0% over 50% B and 50% C in 5 min up to 100% B in 1 minute in a linear fashion and organic phase concentration was kept stationary for an additional 1.5 minutes. Total injection volume of the samples was 25 μl.
A Quatro triple quadrupole mass spectrometer fitted with and ESP source was used as detector. The source and the desolvation temperature were set at 120 and 350° C. respectively and nitrogen was used as nebuliser and drying gas. Data were acquired in positive scan mode (single ion reaction). Cone voltage was set at 10 V and the dwell time was 1 second.
Metabolic stability was expressed as % metabolism of the compound after 60 minutes (equation given as example) of incubation in the presence of active microsomes (E(act))

SMILES strings stand for the structures. Structures can show the parent of a compound that is named as a salt. Where only a bound is given, the exact number is not on record here.

T1 sequence (Q13639 whole entry): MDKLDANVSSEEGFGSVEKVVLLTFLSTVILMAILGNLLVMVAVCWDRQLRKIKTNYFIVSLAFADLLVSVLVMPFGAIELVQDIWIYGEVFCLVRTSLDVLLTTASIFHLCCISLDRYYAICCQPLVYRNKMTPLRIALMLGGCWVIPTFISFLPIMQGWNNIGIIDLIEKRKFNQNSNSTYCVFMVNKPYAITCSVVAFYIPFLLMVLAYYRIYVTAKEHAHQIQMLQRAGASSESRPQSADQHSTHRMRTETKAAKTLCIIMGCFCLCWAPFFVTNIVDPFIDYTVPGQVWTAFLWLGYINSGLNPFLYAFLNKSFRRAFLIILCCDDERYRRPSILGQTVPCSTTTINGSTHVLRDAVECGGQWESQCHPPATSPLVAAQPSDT

`Cc1cc2c(c(C(=O)NC[C@@H]3CCN(CCOc4ccc(C(=O)O)cc4)C[C@H]3O)c1)OCCCO2` [compound 6] gave a melting point of 175 °C. The IC50 in data set [1] is 63.1 nM.

`Cc1cc2c(c(C(=O)NC[C@@H]3CCN(CCCCOc4ccc(C(=O)O)cc4)C[C@H]3O)c1)OCCCO2` [compound 2] displayed a melting point of 188 °C. Further, the “% metabolized (% metabolised compound after 60 minutes)” value (shortened to “% metabolized”) in data set [2] amounted to 6%. Further, in data set [1], the IC50 was 9.55 nM.

For `Cc1ccc(C(=O)NC[C@@H]2CCN(CCOc3ccc(C(=O)O)cc3)C[C@H]2O)c2c1OCCCO2` [compound 8], in data set [1], the IC50 was 42.7 nM.

In turn, `Cc1cc2c(c(C(=O)NC[C@@H]3CCN(CCCOc4ccccc4C(=O)O)C[C@H]3O)c1)OCCCO2` [Co. No. 1] returned a melting point of 114 °C.

`COc1ccc(C(=O)NCC2CCN(CCCOc3ccc(C(=O)O)cc3)CC2OC)c2c1OCCCO2` (stereo not shown) [compound 21] came in with a melting point of 179.4 to 189.2 °C. Further, the IC50 in data set [1] is 66.1 nM.

For the compound `Cc1cc2c(c(C(=O)NC[C@@H]3CCN(CCCOc4ccc(C(=O)O)cc4)C[C@H]3O)c1)OCCCO2` (relative stereo) [compound 13], the melting point was found to be 118 °C. For the same compound, the IC50 in data set [1] was 20.9 nM.

With `Cc1ccc(C(=O)NC[C@@H]2CCN(CCCOc3ccc(C(=O)O)cc3)C[C@H]2O)c2c1OCCCO2` [compound 14], the melting point is 155 °C. In data set [2], the “% metabolized” value came to 0%. Also, the IC50 in data set [1] is 8.71 nM.

`O=C(O)c1ccc(OCCCN2CCC(CNC(=O)c3cc(Cl)c(Cl)c4c3OCCCO4)C(O)C2)cc1` (stereo not shown) (as salt: HCl) [compound 16] registered a melting point of 256 °C.

For `O=C(O)c1ccc(OCCCN2CC[C@@H](CNC(=O)c3cc(Cl)c(Br)c4c3OCCCO4)[C@H](O)C2)cc1` (relative stereo) (as salt: HCl) (hydrate or solvate) [compound 17], the melting point came to 268 °C.

`O=C(O)c1ccccc1OCCCN1CC[C@@H](CNC(=O)c2cc(Cl)cc3c2OCCCO3)[C@H](O)C1` (relative stereo) [compound 7] showed a melting point of 148 °C. For the same compound, in data set [2], the “% metabolized” value turned out to be 14%. The IC50 in data set [1] is 79.4 nM.

Regarding `O=C(O)c1ccc(OCCCN2CCC(CNC(=O)c3cc(Cl)c(Cl)c4c3OCCCO4)C(O)C2)cc1` (stereo not shown) [compound 16], the “% metabolized” value in data set [2] came out at 3%. Besides, in data set [1], the IC50 is 7.59 nM.

On to `CO[C@@H]1CN(CCCOc2ccc(C(=O)O)cc2)CC[C@H]1CNC(=O)c1cc(Cl)c(Cl)c2c1OCCCO2` (relative stereo) [compound 20], for which the melting point was determined as 200 °C. Further, the IC50 in data set [1] is 7.76 nM.

`O=C(O)c1ccc(OCCCCN2CC[C@@H](CNC(=O)c3cc(Cl)cc4c3OCCCO4)[C@H](O)C2)cc1` [compound 5]: the melting point stood at 190 °C. Further, the “% metabolized” value in data set [2] amounted to 15%. The IC50 in data set [1] was 5.13 nM.

`Cc1cc2c(c(C(=O)NC[C@@H]3CCN(CCCOc4ccccc4C(=O)O)C[C@H]3O)c1)OCCCO2` [compound 1]: the IC50 in data set [1] was 120 nM.

`Cc1ccc(C(=O)NC[C@@H]2CCN(CCCOc3cccc(C(=O)O)c3)C[C@H]2O)c2c1OCCCO2` [compound 11] showed a melting point of 120 °C. Moreover, the “% metabolized” value in data set [2] is given as 1%. Further, the IC50 in data set [1] was 8.51 nM.

Regarding `O=C(O)c1ccc(OCCCN2CC[C@@H](CNC(=O)c3cc(Cl)c(Br)c4c3OCCCO4)[C@H](O)C2)cc1` (relative stereo) [compound 17], the “% metabolized” value in data set [2] is given as 6%. In addition, the IC50 in data set [1] is 5.62 nM.

In the case of `Cc1ccc(C(=O)NC[C@@H]2CCN(CCCCOc3ccc(C(=O)O)cc3)C[C@H]2O)c2c1OCCCO2` [compound 3], the melting point came to 170 °C. For the same compound, in data set [2], the “% metabolized” value stood at 16%. Moreover, the IC50 in data set [1] is 4.9 nM.

Compound `O=C(O)c1ccc(OCCCN2CCC(CNC(=O)c3cc(Cl)cc4c3OCCCO4)C(O)C2)cc1` (stereo not shown) [compound 9] came in with a melting point of 122 °C. Besides, in data set [2], the “% metabolized” value is on record as 7.5%. Also, in data set [1], the IC50 is 11.2 nM.

With `O=C(O)c1ccc(OCCN2CC[C@@H](CNC(=O)c3cc(Cl)cc4c3OCCCO4)[C@H](O)C2)cc1` [compound 4], the melting point is 220 to 225 °C. The IC50 in data set [1] was 14.5 nM.

`Cc1cc2c(c(C(=O)NCC3CCN(CCCOc4cccc(C(=O)O)c4)CC3O)c1)OCCCO2` (stereo not shown) [compound 12] returned a melting point of 122 °C. Moreover, the “% metabolized” value in data set [2] was determined as 0%. Also, the IC50 in data set [1] is 23.4 nM.

Compound `Cc1ccc(C(=O)NC[C@@H]2CCN(CCOc3ccc(C(=O)O)cc3)C[C@H]2O)c2c1OCCCO2` (hydrate or solvate) [compound 8] came in with a melting point of over 120 °C.

Consider `COC1CN(CCCOc2ccc(C(=O)O)cc2)CCC1CNC(=O)c1cc(C)cc2c1OCCCO2` (stereo not shown) [compound 22], for which, in data set [2], the “% metabolized” value is 6%. For the same compound, the IC50 in data set [1] was 13.5 nM.
